Test results reported in patent US11858919B2, “HDAC1,2 inhibitors” (REGENACY PHARMACEUTICALS, LLC, priority 2018, dated 2024).
Read-outs that look alike come from different tables or passages of the source.

Experiments:
HDAC3 = target: T1, HDAC3 (Homo sapiens, UniProt O15379); test: HDAC enzyme assay, HDAC3 (fluorescence, tripeptide substrate/trypsin); assay type: biochemical; settings: 0.08 ng/ml enzyme, 17 μM substrate, 10 min preincubation
T1 construct: purchased BPS Biosciences
Experimental: (§1) Compounds for testing were diluted in […] to 50 fold the final concentration and a ten-point three-fold dilution series was made. The compounds were diluted in assay buffer (50 mM HEPES, pH 7.4, 100 mM KCl, 0.001% Tween-20, 0.05% BSA, 20 μM TCEP) to 6-fold their final concentration. The HDAC enzymes (purchased from BPS Biosciences) were diluted to 1.5-fold their final concentration in assay buffer. The tripeptide substrate and trypsin at 0.05 μM final concentration were diluted in assay buffer at 6-fold their final concentration. The final enzyme concentrations used in these assays were 3.3 ng/ml (HDAC1), 0.2 ng/ml (HDAC2) and 0.08 ng/ml (HDAC3). The final substrate concentrations used were 16 μM (HDAC1), 10 μM (HDAC2) and 17 μM (HDAC3).
(§2) Five μl of compounds and 20 μl of enzyme were added to wells of a black, opaque 384 well plate in duplicate. Enzyme and compound were incubated together at room temperature for 10 minutes. Five μl of substrate was added to each well, the plate was shaken for 60 seconds and placed into a Victor 2 microtiter plate reader. The development of fluorescence was monitored for 60 min and the linear rate of the reaction was calculated. The IC50 was determined using Graph Pad Prism by a four parameter curve fit.

HDAC2 = target: T2, HDAC2 (Homo sapiens, UniProt Q92769); test: HDAC enzyme assay, HDAC2 (fluorescence, tripeptide substrate/trypsin); assay type: biochemical; settings: 0.2 ng/ml enzyme, 10 μM substrate, 10 min preincubation
T2 construct: purchased BPS Biosciences
T2 sequence (Q92769 whole entry): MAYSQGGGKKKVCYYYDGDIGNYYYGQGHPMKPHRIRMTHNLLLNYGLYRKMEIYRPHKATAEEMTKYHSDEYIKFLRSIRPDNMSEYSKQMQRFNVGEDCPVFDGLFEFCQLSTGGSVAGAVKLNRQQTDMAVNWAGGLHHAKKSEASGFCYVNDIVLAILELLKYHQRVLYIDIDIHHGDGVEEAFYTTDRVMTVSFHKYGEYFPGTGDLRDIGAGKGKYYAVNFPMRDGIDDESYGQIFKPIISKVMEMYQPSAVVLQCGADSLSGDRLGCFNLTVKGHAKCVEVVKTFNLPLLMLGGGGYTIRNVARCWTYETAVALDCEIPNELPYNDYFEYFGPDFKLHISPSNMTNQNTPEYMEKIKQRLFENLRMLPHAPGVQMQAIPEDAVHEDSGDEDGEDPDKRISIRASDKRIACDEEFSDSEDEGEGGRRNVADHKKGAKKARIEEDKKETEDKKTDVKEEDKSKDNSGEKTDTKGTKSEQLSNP
Experimental: as §1, §2

HDAC1 = target: T3, HDAC1 (Homo sapiens, UniProt Q13547); test: HDAC enzyme assay, HDAC1 (fluorescence, tripeptide substrate/trypsin); assay type: biochemical; settings: 3.3 ng/ml enzyme, 16 μM substrate, 10 min preincubation
T3 construct: purchased BPS Biosciences
T3 sequence (Q13547 whole entry): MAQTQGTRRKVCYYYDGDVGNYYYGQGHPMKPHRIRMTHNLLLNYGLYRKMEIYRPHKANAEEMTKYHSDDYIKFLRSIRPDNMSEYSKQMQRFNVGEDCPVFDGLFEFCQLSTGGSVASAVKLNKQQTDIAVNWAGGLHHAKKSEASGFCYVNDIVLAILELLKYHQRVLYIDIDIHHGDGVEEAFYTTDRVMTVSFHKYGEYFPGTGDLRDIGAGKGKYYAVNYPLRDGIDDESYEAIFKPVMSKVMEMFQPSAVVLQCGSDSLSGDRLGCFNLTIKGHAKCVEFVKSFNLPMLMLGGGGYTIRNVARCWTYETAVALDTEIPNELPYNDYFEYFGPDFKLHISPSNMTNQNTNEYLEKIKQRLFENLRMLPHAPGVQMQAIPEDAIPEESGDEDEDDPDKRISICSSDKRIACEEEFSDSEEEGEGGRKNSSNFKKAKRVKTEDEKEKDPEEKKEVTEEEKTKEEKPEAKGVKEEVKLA
Experimental: as §1, §2

[1] = Pharmacokinetics in male SD rats (cassette dosing, IV and PO), plasma level by LC/MS/MS; assay type: in vivo; settings: male SD rat; for bioavailability: dose adjusted PO AUC (5 mg/kg) to IV AUC (1 mg/kg), read-out: F % (oral bioavailability)
Experimental: Male SD rats were fasted overnight. Compounds of the invention were dissolved in dimethyl acetamide at 10 times the final concentration, then Solutol HS 15 (BASF) was added to a final concentration of 10%. Finally, 80% saline was added and vortexed to achieve a clear solution. For the IV dosing three animals were injected via the foot dorsal vein with 1 mg/kg compound. For the PO dosing 5 mg/kg of compound was delivered by oral gavage. Blood was collected via the tail vein into K2EDTA tubes at 5 minutes, 15 minutes, 30 minutes, 1 hour, 2 hours, 4 hours, 8 hours and 24 hours after dosing. The blood was centrifuged at 2000 g for 5 minutes at 4° C. to obtain plasma. The plasma was extracted with acetonitrile and the level of compound was analyzed by LC/MS/MS. The level of compound in plasma was calculated from a standard curve in rat plasma. The IV clearance (L/h/kg) and area under the curve (h*ng/mL) were calculated using WinNonLin software. The dose adjusted area under the curve for the IV and oral dosing were used to calculate the oral bioavailability.
Pharmacokinetic properties were assessed in a rat cassette dosing experiment. The IV clearance (IV Clr.) is in units of L/hr/kg. The oral maximum plasma concentration (PO Cmax) is in units of ng/ml. The oral plasma half-life (PO T½) is in units of hours. The oral area under the curve (PO AUC) is in units of hours*ng/ml. The fraction absorbed by the oral route (F %) is a percentage of the oral area under the curve to the IV area under the curve, dose adjusted.

[2] = PO 5 mg/kg oral gavage, read-out: PO AUC
[3] = PO 5 mg/kg oral gavage, read-out: PO t1/2

T1 sequence (O15379 whole entry): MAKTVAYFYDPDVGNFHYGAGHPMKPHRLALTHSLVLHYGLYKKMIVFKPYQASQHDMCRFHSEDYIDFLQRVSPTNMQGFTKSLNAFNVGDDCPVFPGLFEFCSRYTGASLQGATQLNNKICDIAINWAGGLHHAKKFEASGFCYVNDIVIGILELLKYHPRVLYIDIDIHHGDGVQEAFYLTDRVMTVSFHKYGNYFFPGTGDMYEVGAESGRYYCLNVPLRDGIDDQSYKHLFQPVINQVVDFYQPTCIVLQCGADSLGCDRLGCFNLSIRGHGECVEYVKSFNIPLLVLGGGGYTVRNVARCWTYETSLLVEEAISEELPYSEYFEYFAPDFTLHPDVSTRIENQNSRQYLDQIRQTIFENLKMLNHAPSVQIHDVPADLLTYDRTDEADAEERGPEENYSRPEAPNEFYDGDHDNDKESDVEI
T1 sequence (Q9Y618 395-489 partner limits assumed): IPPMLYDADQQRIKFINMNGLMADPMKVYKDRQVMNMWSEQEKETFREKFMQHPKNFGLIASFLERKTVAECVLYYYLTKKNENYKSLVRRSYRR

| SMILES | IC50 (HDAC3) | IC50 (HDAC2) | IC50 (HDAC1) | AUC ([1]; IV 1 mg/kg, read-out: IV AUC) | Cmax ([1]; PO 5 mg/kg oral gavage) | AUC [1, 2] | bioavailability [1] | IV clearance ([1]; IV 1 mg/kg) | half-life ([1]; IV 1 mg/kg, read-out: IV t1/2) | half-life [1, 3] |
| --- | --- | --- | --- | --- | --- | --- | --- | --- | --- | --- |
| CN1C(=O)Cc2cc(C(=O)Nc3cc(-c4cccs4)ccc3N)ccc21 [Compound 001] | 340 to 350 nM | 10 to 15 nM | 5 to 10 nM | 40000 to 40200 ng·h/mL | 6950 to 7000 ng/mL | 140000 ng·h/mL | 65 to 75% | – | – | – |
| Nc1ccc(-c2ccccc2)cc1NC(=O)c1ccc2c(c1)CC(=O)N2CC1CC1 [Compound 002] | 925 to 935 nM | 45 to 50 nM | 20 to 25 nM | 6500 to 6600 ng·h/mL | 2450 to 2500 ng/mL | 22400 ng·h/mL | 65 to 75% | 0.167 to 8.33 mL/min/kg | 1 to 5 h | 5 to 10 h |
| Nc1ccc(-c2cccs2)cc1NC(=O)c1ccc2c(c1)CC(=O)N2CCN1CCOCC1 [Compound 003] | 145 to 590 nM | 5 to 25 nM | 1 to 10 nM | 1800 to 1900 ng·h/mL | 950 to 1000 ng/mL | 11400 to 11600 ng·h/mL | 130 to 140% | 1.67 to 16.7 mL/min/kg | 5 to 10 h | 5 to 10 h |
| Nc1ccc(-c2cccs2)cc1NC(=O)c1ccc2c(c1)CC(=O)N2 [Compound 004] | 530 to 540 nM | 25 to 30 nM | 5 to 10 nM | 10600 to 10800 ng·h/mL | 3500 to 3550 ng/mL | 61200 to 61400 ng·h/mL | 110 to 115% | 0.167 to 8.33 mL/min/kg | 15 to 20 h | 10 to 15 h |
| Nc1ccc(-c2cccs2)cc1NC(=O)c1ccc2c(c1)CC(=O)N2CCN1CCCCC1 [Compound 006] | 1130 to 1140 nM | 70 to 75 nM | 10 to 15 nM | – | – | – | – | – | – | – |
| CN1C(=O)Cc2cc(C(=O)Nc3cc(-c4ccc(O)cc4)ccc3N)ccc21 [Compound 007] | 2740 to 2750 nM | 60 to 65 nM | 25 to 30 nM | – | – | – | – | – | – | – |
| Nc1ccc(-c2ccccc2)cc1NC(=O)c1ccc2ncn(CCN3CCOCC3)c2c1 [Compound 008] | > 2000 nM | > 2000 nM | 625 to 650 nM | – | – | – | – | – | – | – |
| Nc1ccc(-c2cccs2)cc1NC(=O)c1ccc2[nH]c(C3CC3)nc2c1 [Compound 009] | 470 to 480 nM | 40 to 45 nM | 10 to 15 nM | 10800 ng·h/mL | 4150 to 4200 ng/mL | 65200 to 65400 ng·h/mL | 115 to 125% | 0.167 to 8.33 mL/min/kg | 15 to 20 h | 10 to 15 h |
| Cn1cnc2ccc(C(=O)Nc3cc(-c4cccs4)ccc3N)cc21 [Compound 010] | 985 to 995 nM | 210 to 220 nM | 375 to 380 nM | – | – | – | – | – | – | – |
| Nc1ccc(-c2cccs2)cc1NC(=O)c1ccc2c(c1)CC(=O)N2CC1CC1 [Compound 011] | 490 to 500 nM | 35 to 40 nM | 10 to 15 nM | 2000 to 2100 ng·h/mL | 700 to 750 ng/mL | 8000 to 8100 ng·h/mL | 80 to 90% | 1.67 to 16.7 mL/min/kg | 5 to 10 h | 5 to 10 h |
| CN1C(=O)Cc2cc(C(=O)Nc3cc(-c4ccccc4)ccc3N)ccc21 [Compound 012] | 875 to 885 nM | 20 to 30 nM | 25 to 35 nM | 29800 to 30000 ng·h/mL | 8200 to 8250 ng/mL | 9450 to 9550 ng·h/mL | 60 to 70% | 0.167 to 8.33 mL/min/kg | 5 to 10 h | 15 to 20 h |
| Nc1ccc(-c2ccccc2)cc1NC(=O)c1ccc2c(c1)CC(=O)N2CCN1CCOCC1 [Compound 013] | 1040 to 1050 nM | 70 to 80 nM | 25 to 35 nM | 2700 to 2800 ng·h/mL | 1900 to 1950 ng/mL | 11800 ng·h/mL | 80 to 90% | 1.67 to 16.7 mL/min/kg | 1 to 5 h | 1 to 5 h |
| CN1C(=O)C(C)(C)c2cc(C(=O)Nc3cc(-c4cccs4)ccc3N)ccc21 [Compound 014] | 3370 to 3380 nM | 2140 to 2150 nM | 4180 to 4200 nM | – | – | – | – | – | – | – |
| CN1C(=O)Cc2cc(C(=O)Nc3cc(-c4ccco4)ccc3N)ccc21 [Compound 015] | 640 to 650 nM | 30 to 40 nM | 15 to 25 nM | – | – | – | – | – | – | – |
| Nc1ccc(-c2cccs2)cc1NC(=O)c1ccc2c(c1)CC(=O)N2CCCN1CCOCC1 [Compound 016] | 710 to 720 nM | 5 to 15 nM | 1 to 10 nM | – | – | – | – | – | – | – |
